Experimental findings from patent US9510592B2, “Pesticidal compositions and processes related thereto” (Dow AgroSciences LLC, priority 2012, dated 2016) are described below.

The test system of data set [1] is Green Peach Aphid (Myzus persicae). Put plainly: Bioassay on Green Peach Aphid (GPA), foliar spray on cabbage seedlings. The class given is in vivo. To be noted: 72 h, corrected % control (Abbott), 200 ppm spray on cabbage seedlings, three days, Table 3A, read-out: GPA Rating. The procedure: Certain molecules disclosed in this document were tested against GPA using procedures described in the following example. In the reporting of the results, the “GPA Rating Table” was used (See Table Section). Cabbage seedlings grown in 3-inch pots, with 2-3 small (3-5 cm) true leaves, were used as test substrate. The seedlings were infested with 20-50 GPA (wingless adult and nymph stages) one day prior to chemical application. Four pots with individual seedlings were used for each treatment. Test compounds (2 mg) were dissolved in 2 mL of acetone/MeOH (1:1) solvent, forming stock solutions of 1000 ppm test compound. The stock solutions were diluted 5× with 0.025% Tween 20 in water to obtain the solution at 200 ppm test compound. A hand-held aspirator-type sprayer was used for spraying a solution to both sides of […] leaves until runoff. Reference plants (solvent check) were sprayed with the diluent only containing 20% by volume of acetone/MeOH (1:1) solvent. Treated plants were held in a holding room for three days at approximately 25° C. and ambient relative humidity (RH) prior to grading. Evaluation was conducted by counting the number of live aphids per plant under a microscope. Percent Control was measured by using Abbott's correction formula (W. S. Abbott, “A Method of Computing the Effectiveness of an Insecticide” J. Econ. Entomol. 18 (1925), pp. 265-267) as follows. Corrected % Control=100*(X−Y)/X • where • X=No. of live aphids on solvent check plants and • Y=No. of live aphids on treated plants The results are indicated in the table entitled “Table 3: Assay Results” (See Table Section).

For data set [2], the system named is Cabbage Looper (Trichoplusia ni). Put plainly: Bioassay on Cabbage Looper (CL), 128-well diet tray assay. The class given is in vivo. The following applies: percent mortality of second instar larvae, 50 μg/cm^2 on artificial diet, five to seven days, 25° C.; Table 3A. The protocol:
Certain molecules disclosed in this document were tested against BAW and CEW and CL using procedures described in the following examples. In the reporting of the results, the “BAW & CEW & CL Rating Table” was used (See Table Section).
Bioassays on CL (Trichoplusia ni)
Bioassays on CL were conducted using a 128-well diet tray assay. One to five second instar CL larvae were placed in each well (3 mL) of the diet tray that had been previously filled with 1 mL of artificial diet to which 50 μg/cm^2 of the test compound (dissolved in […] of 90:10 acetone-water mixture) had been applied (to each of eight wells) and then allowed to dry. Trays were covered with a clear self-adhesive cover, and held at 25° C., 14:10 light-dark for five to seven days. Percent mortality was recorded for the larvae in each well; activity in the eight wells was then averaged. The results are indicated in the table entitled “Table 3A: Assay Results” (See Table Section).

Data set [3] deals with Beet Armyworm (Spodoptera exigua). Put plainly: Bioassay on Beet Armyworm (BAW), 128-well diet tray assay. The class given is in vivo. To be noted: Spodoptera exigua, 168 h; percent mortality of second instar larvae, 50 μg/cm^2 on artificial diet, five to seven days, 25° C.; Table 3A; read-out: BAW Rating. The gist of the method: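 Second-instar larvae (one to five per well) were placed on artificial diet surface-treated with 50 μg/cm^2 compound in acetone-water and held at 25 °C, 14:10 light-dark, for five to seven days. Percent mortality was averaged over eight wells.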

The term melting point denotes the temperature, or range, at which the solid turns liquid.

Regarding `O=C(NCCNC(=O)C(F)(F)F)c1ccc(/C=C/C(c2cc(Cl)c(Cl)c(Cl)c2)C(F)(F)F)cc1Br` (stereo not shown) [Compound F33], in data set [1], the pest or weed control at 200 ppm lay in the range of 0 to 80%. The “CL Rating” value in data set [2] is on record as “A (50-100)”. In data set [3], the pest or weed control at 50 µg/cm2, 50 µg/cm2 was 50 to 100%.
In the case of `O=C(CC(F)(F)F)NNC(=O)c1ccc(/C=C/C(c2cc(Cl)c(Cl)c(Cl)c2)C(F)(F)F)cc1Br` (stereo not shown) [Compound F1], the “CL Rating” value in data set [2] is reported as “A (50-100)”. The pest or weed control at 50 µg/cm2, 50 µg/cm2 in data set [3] is 50 to 100%.
The like results for `CCC(=O)NNC(=O)c1ccc(/C=C/C(c2cc(Cl)c(Cl)c(Cl)c2)C(F)(F)F)cc1Br` (stereo not shown) [Compound F8] were, in that order, “A (50-100)” and 50 to 100%.
The like results for `CCC(=O)N(C)NC(=O)c1ccc(/C=C/C(c2cc(Cl)c(Cl)c(Cl)c2)C(F)(F)F)cc1Br` (stereo not shown) [Compound F11, (E)-2-Bromo-N′-methyl-N′-propionyl-4-(4,4,4-trifluoro-3-(3,4,5-trichlorophenyl)but-1-en-1-yl)benzohydrazide] were, in that order, “A (50-100)” and 50 to 100%.
As to `NC(=O)c1ccc(/C=C/C(c2cc(Cl)cc(Cl)c2)C(F)(F)F)cc1` (stereo not shown) [AC2], the melting point lay in the range of 110 to 112 °C.
